What was measured:
[1] = test system: polymorphonuclear neutrophil infiltration; conditions: murine peritonitis model, compared with the vehicle control; cited from earlier work
[2] = test system: eicosanoid oxido-reductase; conditions: in comparison with native lipoxin A4; cited from earlier work
[3] = stability of the methyl ester in the oral rinse formulation over the course of the study; format: physicochemical; conditions: neutral pH (7 or less)
Description: (§1) The pH of this solution was 7 or less.
Without wishing to be bound by theory, it is believed that […] the pH of the oral rinse formulation increases the stability of the methyl ester forms of these benzo-lipoxin analogs and mimetics, therefore allowing for more efficient delivery of the active compounds (e.g., Compound (Vb), etc.) in these formulations.

subjects with gingivitis = assay: randomized, placebo-controlled, double-blind clinical study of Compound (Vb) oral rinse in gingivitis; format: in vivo, humans
Protocol: A clinical study comprised of 3 groups in a randomized, placebo-controlled, double-blind design with an additional group that received no treatment was performed to evaluate the use of Compound (Vb) on the treatment of gingivitis. Subjects were healthy adults, aged 18 through 65 years, with gingivitis as defined by […] (MGI)≥2.0. The treatment group (Compound (Vb) oral rinse) and the placebo rinse group consisted of 50 subjects each. The no-rinse control group consisted of 27 subjects. These group sizes were planned to allow for a 20% dropout rate.
as §1
The Compound (Vb) oral rinse group received the active agent at a concentration of 1.0 μM in the oral rinse applied once daily (after morning teeth brushing) for 28 days. Thirty-two subjects reported a total of 56 treatment emergent adverse effects (TEAEs), with the greatest percentage of subjects reporting at least 1 TEAE in the Compound (Vb) group (38.0%) followed by the placebo group (20.0%) and the no-rinse control group (11.1%). Overall, 10 subjects reported at least 1 TEAE considered related to study drug, and 5 subjects reported at least one TEAE related to study procedures.
The primary outcome of this study was safety, and therefore, all efficacy analyses were considered secondary outcomes. The key secondary efficacy outcomes in this study were Modified Gingival Index (MGI) and BOP.

[4] = 1.0 μM oral rinse once daily for 28 days
[5] = oral TEAE possibly related to study drug

For CCCCC[C@@H](O)/C=C/c1ccccc1/C=C/[C@@H](O)[C@@H](O)CCCC(=O)OC [Compound (Vb), methyl (5S,6R,E)-5,6-dihydroxy-8-(2-((R,E)-3-hydroxyoct-1-en-1-yl)phenyl)oct-7-enoate], the “inhibition of polymorphonuclear neutrophil infiltration” value [1] is given as “approximately 32%”, the “conversion to inactive forms” value [2] is given as “not readily converted to inactive forms” and the “stability of the methyl ester in the formulation” value [3] is given as “increase in the free acid form”. For the same compound, the “overall safety and tolerability” value (subjects with gingivitis; [4]) was “generally safe and well tolerated”, the “percentage of subjects reporting at least 1 TEAE” value (subjects with gingivitis; [4]) was 38.0% and the “subjects reporting oral TEAEs considered possibly related to study drug” value (subjects with gingivitis; [4]) was “Four”. For the same compound, the “subjects with study drug-related TEAEs” value (subjects with gingivitis; [4]) was 6 subjects, the “change in mean MGI” value (subjects with gingivitis; Day 14 and 28, relative to placebo) was “clinically important decrease” and the BOP (subjects with gingivitis; Day 28, versus placebo) was “did not result in meaningful differences”. For the same compound, the “extent of clinical gingivitis” value (subjects with gingivitis; compared with the placebo group) was “reduced the extent of clinical gingivitis”, the “TEAEs leading to study drug discontinuation” value (subjects with gingivitis; human, in vivo) was “No TEAEs led to study drug discontinuation” and the “severity of oral TEAEs” value (subjects with gingivitis; human, in vivo, po) was “mild in severity”. For the same compound, the “subjects reporting an oral disorder” value (subjects with gingivitis; [5]) was 1 subject, the “subjects reporting dry mouth” value (subjects with gingivitis; [5]) was 3 subjects and the pocket depth reduction (subjects with gingivitis; sites with pockets >6 mm, ± SD) was −1.23±0.406 mm.

Reference: patent US12527760B2, “Synthesis of pro-resolving analogs and compositions therefor” (Nocendra Inc., priority 2019, dated 2026)
